Results from ChEMBL document CHEMBL1134716, “Synthesis and evaluation of GGPP geometric isomers: divergent substrate specificities of FTase and GGTase I” (Bioorg Med Chem Lett, 2001).

Biological target: Geranylgeranyl transferase type I (Homo sapiens, UniProt P49354+P53609)
Assay: Inhibition of recombinant mammalian Geranylgeranyl transferase type I expressed in baculovirus

IC50 [nM] | SMILES
340 | CC(C)=CCC/C(C)=C/CC/C(C)=C\CC/C(C)=C/COP(=O)(O)OP(=O)(O)O
100 | CC(C)=CCC/C(C)=C/CC/C(C)=C/CC/C(C)=C\COP(=O)(O)OP(=O)(O)O
